The results in this text go back to ChEMBL document CHEMBL5325394, “What We Have Gained from Ibogaine: α3β4 Nicotinic Acetylcholine Receptor Inhibitors as Treatments for Substance Use Disorders” (J Med Chem, 2023).

One assay addresses Mu-type opioid receptor (Bos taurus, UniProt P79350). The assay can be described thus: Displacement of [3H]-DAGO from calf cortex MOR receptor assessed as inhibition constant. The class given is tissue-based. On the technique in general: Loss of bound radioactivity is the signal in a displacement assay; it reports binding, not function.
Assay [1] is described as follows: Displacement of [3H]-DPDPE from calf caudate nucleus DOR receptor assessed as inhibition constant. The class given is tissue-based, Bos taurus.
Assay [2] in a line: Displacement of [3H]-GR-65,630 from 5-HT3 receptor in mouse NG-108 cells assessed as inhibition constant. The settings on record: ng-108 cell. Format: cell-based.
In assay [3] the target is T1, Muscarinic acetylcholine receptor M1 (Bos taurus, UniProt Q8WMX0).
T1 sequence (Q8WMX0 whole entry): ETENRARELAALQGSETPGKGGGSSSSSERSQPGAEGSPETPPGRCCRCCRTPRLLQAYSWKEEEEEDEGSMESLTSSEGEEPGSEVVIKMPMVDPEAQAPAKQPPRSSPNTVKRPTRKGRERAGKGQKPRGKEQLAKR
Description: Displacement of [3H]-pirenzepine from calf cortex Muscarinic M1 receptor assessed as inhibition constant. The class given is tissue-based.

For assay [4], the target named is Sigma intracellular receptor 2 (Bos taurus, UniProt Q3MHW7). Description: Displacement of [3H]-DTG from calf hippocampus sigma 2 receptor assessed as inhibition constant. The class given is tissue-based.
A short description of assay [5]: Displacement of [3H]-BTX-B from bovine cortex sodium channel assessed as inhibition constant. Format: tissue-based, Bos taurus.
Assay [6] in a line: Displacement of [3H]-MK801 from bovine cortex NMDA receptor assessed as inhibition constant. Format: tissue-based, Bos taurus.
Assay [7] is described as follows: Displacement of [3H]-paroxetine from bovine brain stem 5-HT receptor assessed as inhibition constant. Format: tissue-based, Bos taurus, Brainstem.
The target of assay [8] is T2, Neuronal acetylcholine receptor; alpha3/beta4 (Homo sapiens, UniProt P30926+P32297). Description: Antagonist activity at recombinant alpha3beta4 nAChR in HEK293 cells by voltage-clamp based electrophysiological method. The class given is cell-based.
Assay [9] addresses T3, Neuronal acetylcholine receptor; alpha4/beta2 (Homo sapiens, UniProt P17787+P43681). The assay can be described thus: Antagonist activity at alpha4beta2 nAChR in HEK293 cells by voltage-clamp based electrophysiological method. Format: cell-based.
The target of assay [10] is T2, Neuronal acetylcholine receptor; alpha3/beta4. Description: Displacement of [3H]Ibogaine from human alpha3beta4 nAChRs expressed in HEK293 cells assessed as inhibition constant incubated for 2 hrs by scintillation counter analysis. The class given is cell-based.
The target is the same in assay [11]. The assay can be described thus: Partial agonist activity at alpha3beta4 nAChR in HEK293 cells assessed as reduction in Ca+2 influx by FLIPR assy. The class given is cell-based.
Assay [12] has as its target T3, Neuronal acetylcholine receptor; alpha4/beta2. The assay can be described thus: Partial agonist activity at alpha4beta2 nAChR in HEK293 cells assessed as reduction in Ca+2 influx by FLIPR assy. Format: cell-based.
Assay [13] concerns the target T4, Neuronal acetylcholine receptor; alpha4/beta2 (Rattus norvegicus, UniProt P09483+P12390). Description: Binding affinity to rat alpha4beta2 nAChR expressed in HEK cells assessed as inhibition constant measured after 2 hrs in the presence of [3H]epibatidine. The class given is cell-based.
Assay [14] deals with Neuronal acetylcholine receptor subunit alpha-7 (Rattus norvegicus, UniProt Q05941). Description: Binding affinity to rat alpha7 nAChR expressed in HEK cells assessed as inhibition constant measured after 2 hrs in the presence of [3H]epibatidine. The class given is cell-based.
The target in assay [15] is T3, Neuronal acetylcholine receptor; alpha4/beta2. The assay can be described thus: Antagonist activity at alpha4beta2 nAChR (unknown origin). The class given is protein-complex assay.
Assay [16] addresses Serotonin 3 (5-HT3) receptor. Description: Antagonist activity at 5-HT3 receptor (unknown origin). The class given is protein-complex assay, Homo sapiens.
Another assay deals with Histamine H1 receptor (Homo sapiens, UniProt P35367). Description: Antagonist activity at H1 receptor (unknown origin).
In assay [17] the target is T5, Muscarinic acetylcholine receptor M5 (Homo sapiens, UniProt P08912).
T5 sequence (P08912 whole entry): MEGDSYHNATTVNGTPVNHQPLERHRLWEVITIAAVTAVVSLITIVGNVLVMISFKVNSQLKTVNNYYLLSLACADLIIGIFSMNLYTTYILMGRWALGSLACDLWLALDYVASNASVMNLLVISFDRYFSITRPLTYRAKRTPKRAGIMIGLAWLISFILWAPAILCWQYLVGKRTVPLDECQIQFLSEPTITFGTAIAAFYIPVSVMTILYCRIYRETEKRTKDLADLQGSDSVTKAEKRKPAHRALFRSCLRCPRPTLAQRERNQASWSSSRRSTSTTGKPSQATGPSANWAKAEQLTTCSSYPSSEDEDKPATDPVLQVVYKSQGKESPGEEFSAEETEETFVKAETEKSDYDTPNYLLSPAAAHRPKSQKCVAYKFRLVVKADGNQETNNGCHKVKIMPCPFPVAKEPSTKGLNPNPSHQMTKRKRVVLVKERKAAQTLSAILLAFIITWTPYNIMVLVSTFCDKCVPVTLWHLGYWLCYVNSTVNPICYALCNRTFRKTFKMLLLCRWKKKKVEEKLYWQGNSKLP
Description: Antagonist activity at muscarinic M5 receptor (unknown origin). Format: functional.

Assay [18] deals with Sigma intracellular receptor 2 (Homo sapiens, UniProt Q5BJF2). Description: Antagonist activity at sigma 2 receptor (unknown origin).
For assay [19], the target named is T2, Neuronal acetylcholine receptor; alpha3/beta4. Description: Inhibition of alpha3beta4 (unknown origin) by electrophysiology assay. The class given is protein-complex assay.
Assay [20] has as its target Neuronal acetylcholine receptor; alpha3/beta2 (Homo sapiens, UniProt P17787+P32297). The assay can be described thus: Inhibition of nAChR alpha3beta2 (unknown origin) by electrophysiology assay. Format: protein-complex assay.
The target in assay [21] is T6, Neuronal acetylcholine receptor subunit alpha-7 (Homo sapiens, UniProt P36544). Description: Inhibition of nAChR alpha7 (unknown origin) by electrophysiology assay.
Assay [22] concerns the target T3, Neuronal acetylcholine receptor; alpha4/beta2. The assay can be described thus: Inhibition of nAChR alpha4beta2 (unknown origin) by electrophysiology assay. Format: protein-complex assay.
For assay [23], the target named is Neuronal acetylcholine receptor; alpha3/beta4 (Rattus norvegicus, UniProt P04757+P12392). The assay can be described thus: Antagonist activity at rat alpha3beta4 nACh receptor expressed in Xenopus oocyte by voltage-clamp based electrophysiological assay. Format: cell-based.
In assay [24] the target is Neuronal acetylcholine receptor; alpha3/beta2 (Rattus norvegicus, UniProt P04757+P12390). Description: Antagonist activity at rat alpha3beta2 nACh receptor expressed in Xenopus oocyte by voltage-clamp based electrophysiological assay. Format: cell-based.
In assay [25] the target is T4, Neuronal acetylcholine receptor; alpha4/beta2. The assay can be described thus: Antagonist activity at rat alpha4beta2 nACh receptor expressed in Xenopus oocyte by voltage-clamp based electrophysiological assay. Format: cell-based.
Assay [26] concerns the target T6, Neuronal acetylcholine receptor subunit alpha-7. Description: Antagonist activity at human alpha7 nACh receptor expressed in Xenopus oocyte by voltage-clamp based electrophysiological assay. The class given is cell-based.
The target in assay [27] is T2, Neuronal acetylcholine receptor; alpha3/beta4. Description: Inhibition of alpha3beta4 nAChRs (unknown origin). Format: protein-complex assay.

Where a SMILES comes first, the peptide text is derived from it. Bridges are numbered along the chain shown (N, C = ends). Some results are limits rather than exact numbers.

T2 sequence (P30926 whole entry): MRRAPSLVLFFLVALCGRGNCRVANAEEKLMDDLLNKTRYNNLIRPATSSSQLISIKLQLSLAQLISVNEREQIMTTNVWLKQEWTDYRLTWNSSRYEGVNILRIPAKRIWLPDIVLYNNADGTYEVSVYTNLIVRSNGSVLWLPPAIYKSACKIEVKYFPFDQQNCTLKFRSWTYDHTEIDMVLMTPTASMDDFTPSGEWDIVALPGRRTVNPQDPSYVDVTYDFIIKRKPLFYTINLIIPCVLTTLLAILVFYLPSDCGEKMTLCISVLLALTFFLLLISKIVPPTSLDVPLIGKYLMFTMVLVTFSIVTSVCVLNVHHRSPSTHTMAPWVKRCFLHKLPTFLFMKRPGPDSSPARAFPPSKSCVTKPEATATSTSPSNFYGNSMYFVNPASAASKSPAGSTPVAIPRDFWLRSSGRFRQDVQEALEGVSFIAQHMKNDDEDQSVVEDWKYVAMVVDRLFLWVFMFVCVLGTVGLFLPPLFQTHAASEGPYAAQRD
T2 sequence (P32297 whole entry): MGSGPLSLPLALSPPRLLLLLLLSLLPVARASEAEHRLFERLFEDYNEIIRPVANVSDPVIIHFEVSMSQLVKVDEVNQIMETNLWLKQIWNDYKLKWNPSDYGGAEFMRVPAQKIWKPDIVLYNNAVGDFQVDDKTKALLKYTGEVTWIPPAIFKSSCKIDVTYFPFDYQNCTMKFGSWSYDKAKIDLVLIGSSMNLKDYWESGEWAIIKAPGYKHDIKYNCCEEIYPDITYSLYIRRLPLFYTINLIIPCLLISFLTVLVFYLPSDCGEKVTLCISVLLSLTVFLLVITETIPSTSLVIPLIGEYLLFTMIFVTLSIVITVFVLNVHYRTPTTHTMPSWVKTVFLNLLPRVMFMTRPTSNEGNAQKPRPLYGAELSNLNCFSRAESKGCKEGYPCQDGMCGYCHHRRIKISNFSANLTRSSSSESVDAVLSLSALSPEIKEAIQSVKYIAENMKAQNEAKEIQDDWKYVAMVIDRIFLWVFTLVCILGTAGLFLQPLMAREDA
T3 sequence (P17787 whole entry): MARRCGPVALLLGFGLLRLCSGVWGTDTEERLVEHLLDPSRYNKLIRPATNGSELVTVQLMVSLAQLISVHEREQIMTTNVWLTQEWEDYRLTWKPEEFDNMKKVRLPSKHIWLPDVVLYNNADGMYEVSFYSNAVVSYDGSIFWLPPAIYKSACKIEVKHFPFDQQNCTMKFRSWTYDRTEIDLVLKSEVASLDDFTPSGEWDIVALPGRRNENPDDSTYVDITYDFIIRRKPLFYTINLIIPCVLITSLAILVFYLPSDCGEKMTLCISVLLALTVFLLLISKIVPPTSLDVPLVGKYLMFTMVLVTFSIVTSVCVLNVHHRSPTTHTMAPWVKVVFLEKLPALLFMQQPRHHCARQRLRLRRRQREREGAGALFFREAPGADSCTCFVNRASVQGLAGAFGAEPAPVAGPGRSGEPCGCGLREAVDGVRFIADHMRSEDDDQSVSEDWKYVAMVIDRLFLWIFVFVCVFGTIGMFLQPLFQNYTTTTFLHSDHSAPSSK
T3 sequence (P43681 whole entry): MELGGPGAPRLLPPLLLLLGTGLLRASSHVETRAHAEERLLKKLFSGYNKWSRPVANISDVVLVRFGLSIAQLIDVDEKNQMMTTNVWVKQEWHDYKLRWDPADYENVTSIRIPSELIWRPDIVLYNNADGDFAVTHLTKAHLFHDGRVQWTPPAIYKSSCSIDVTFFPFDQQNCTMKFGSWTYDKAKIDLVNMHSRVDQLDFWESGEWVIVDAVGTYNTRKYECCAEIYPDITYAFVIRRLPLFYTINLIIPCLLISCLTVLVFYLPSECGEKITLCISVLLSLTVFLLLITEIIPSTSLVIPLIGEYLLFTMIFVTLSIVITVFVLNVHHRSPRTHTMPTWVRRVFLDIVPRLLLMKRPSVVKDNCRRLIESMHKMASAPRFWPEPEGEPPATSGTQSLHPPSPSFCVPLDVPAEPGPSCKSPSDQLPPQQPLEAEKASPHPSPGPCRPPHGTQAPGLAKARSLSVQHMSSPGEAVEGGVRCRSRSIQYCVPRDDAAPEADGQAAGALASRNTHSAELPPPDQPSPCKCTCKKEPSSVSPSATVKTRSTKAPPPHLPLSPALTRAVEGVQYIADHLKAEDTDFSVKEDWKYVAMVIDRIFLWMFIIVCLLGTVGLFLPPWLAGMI
T6 sequence (P36544 whole entry): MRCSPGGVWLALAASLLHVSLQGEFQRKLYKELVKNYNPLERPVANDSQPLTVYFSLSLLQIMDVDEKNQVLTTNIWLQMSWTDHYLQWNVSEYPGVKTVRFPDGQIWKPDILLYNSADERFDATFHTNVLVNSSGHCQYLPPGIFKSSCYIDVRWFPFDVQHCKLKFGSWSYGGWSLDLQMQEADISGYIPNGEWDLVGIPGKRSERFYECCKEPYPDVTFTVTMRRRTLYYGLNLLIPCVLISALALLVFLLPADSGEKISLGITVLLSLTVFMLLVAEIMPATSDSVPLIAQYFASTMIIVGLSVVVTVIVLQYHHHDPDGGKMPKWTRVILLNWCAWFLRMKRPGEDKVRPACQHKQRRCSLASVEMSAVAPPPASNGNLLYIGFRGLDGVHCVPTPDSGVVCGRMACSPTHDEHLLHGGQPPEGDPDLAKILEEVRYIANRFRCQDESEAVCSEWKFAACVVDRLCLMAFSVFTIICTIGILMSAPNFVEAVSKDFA
T4 sequence (P09483 whole entry): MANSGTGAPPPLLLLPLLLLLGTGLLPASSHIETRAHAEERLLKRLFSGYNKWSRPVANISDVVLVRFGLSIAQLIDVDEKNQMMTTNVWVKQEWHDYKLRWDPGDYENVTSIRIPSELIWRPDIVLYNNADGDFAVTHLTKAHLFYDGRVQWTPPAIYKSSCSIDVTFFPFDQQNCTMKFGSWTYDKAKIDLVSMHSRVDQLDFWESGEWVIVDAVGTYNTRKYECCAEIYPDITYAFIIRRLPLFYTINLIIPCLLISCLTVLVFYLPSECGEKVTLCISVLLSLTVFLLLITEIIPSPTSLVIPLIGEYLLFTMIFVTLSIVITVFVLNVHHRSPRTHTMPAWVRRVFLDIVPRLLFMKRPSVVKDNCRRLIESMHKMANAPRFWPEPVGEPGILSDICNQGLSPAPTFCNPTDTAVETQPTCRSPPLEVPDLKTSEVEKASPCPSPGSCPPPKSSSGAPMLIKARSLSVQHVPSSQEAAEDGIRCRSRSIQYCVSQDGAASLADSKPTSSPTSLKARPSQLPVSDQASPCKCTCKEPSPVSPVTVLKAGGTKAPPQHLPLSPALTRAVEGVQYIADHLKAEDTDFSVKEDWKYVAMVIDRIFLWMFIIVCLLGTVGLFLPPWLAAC
T4 sequence (P12390 whole entry): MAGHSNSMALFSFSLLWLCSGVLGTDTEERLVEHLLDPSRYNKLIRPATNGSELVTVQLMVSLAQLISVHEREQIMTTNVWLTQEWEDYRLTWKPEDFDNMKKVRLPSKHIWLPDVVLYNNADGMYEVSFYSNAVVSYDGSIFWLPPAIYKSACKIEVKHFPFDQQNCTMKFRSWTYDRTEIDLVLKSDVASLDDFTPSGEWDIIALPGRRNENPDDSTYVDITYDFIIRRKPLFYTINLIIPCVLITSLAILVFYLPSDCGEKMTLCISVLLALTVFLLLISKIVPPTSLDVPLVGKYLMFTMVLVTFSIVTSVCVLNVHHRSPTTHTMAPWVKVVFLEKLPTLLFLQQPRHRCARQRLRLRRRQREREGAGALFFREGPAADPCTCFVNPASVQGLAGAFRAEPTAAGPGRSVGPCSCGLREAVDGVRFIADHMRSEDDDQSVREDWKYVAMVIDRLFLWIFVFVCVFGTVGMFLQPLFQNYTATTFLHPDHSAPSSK
Histamine H1 receptor, sequence (P35367 whole entry): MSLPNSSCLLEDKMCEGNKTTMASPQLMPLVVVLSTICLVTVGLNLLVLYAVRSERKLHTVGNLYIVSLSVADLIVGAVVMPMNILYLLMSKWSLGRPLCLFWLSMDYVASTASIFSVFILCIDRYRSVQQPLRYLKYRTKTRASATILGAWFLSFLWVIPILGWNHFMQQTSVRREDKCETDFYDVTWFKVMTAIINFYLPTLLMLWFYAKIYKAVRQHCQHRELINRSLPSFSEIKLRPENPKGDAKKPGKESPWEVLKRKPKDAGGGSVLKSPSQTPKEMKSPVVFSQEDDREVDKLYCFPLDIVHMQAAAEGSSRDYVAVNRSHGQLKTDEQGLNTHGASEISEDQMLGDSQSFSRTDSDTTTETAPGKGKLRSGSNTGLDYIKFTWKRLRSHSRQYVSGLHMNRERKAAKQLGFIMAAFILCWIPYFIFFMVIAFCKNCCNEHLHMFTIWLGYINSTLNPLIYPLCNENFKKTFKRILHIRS
Mu-type opioid receptor, sequence (P79350 whole entry): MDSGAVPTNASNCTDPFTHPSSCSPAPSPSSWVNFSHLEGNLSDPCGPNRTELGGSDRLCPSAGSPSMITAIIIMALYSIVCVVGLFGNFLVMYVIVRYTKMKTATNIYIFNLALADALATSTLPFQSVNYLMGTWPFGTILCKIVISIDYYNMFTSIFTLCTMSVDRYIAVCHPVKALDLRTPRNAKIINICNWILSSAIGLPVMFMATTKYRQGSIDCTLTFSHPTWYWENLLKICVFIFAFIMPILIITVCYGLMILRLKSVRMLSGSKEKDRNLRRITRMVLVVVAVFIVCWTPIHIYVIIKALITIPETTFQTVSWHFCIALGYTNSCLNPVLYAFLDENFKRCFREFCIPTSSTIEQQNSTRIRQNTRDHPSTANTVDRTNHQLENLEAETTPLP
Neuronal acetylcholine receptor; alpha3/beta2 (Homo sapiens, UniProt P17787+P32297), sequence (P17787 whole entry): as the sequence (P17787 whole entry) above
Neuronal acetylcholine receptor; alpha3/beta2 (Homo sapiens, UniProt P17787+P32297), sequence (P32297 whole entry): as the sequence (P32297 whole entry) above
Sigma intracellular receptor 2 (Bos taurus, UniProt Q3MHW7), sequence (Q3MHW7 whole entry): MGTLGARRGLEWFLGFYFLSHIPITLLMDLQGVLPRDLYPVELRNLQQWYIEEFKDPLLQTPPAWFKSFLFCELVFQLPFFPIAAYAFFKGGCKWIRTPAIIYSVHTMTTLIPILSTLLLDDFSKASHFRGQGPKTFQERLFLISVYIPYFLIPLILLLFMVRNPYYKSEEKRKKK

As to `CC[C@H]1C[C@@H]2C[C@H]3c4[nH]c5ccc(OC)cc5c4CC[N@@](C2)[C@@H]13`, the inhibitory constant (Ki) (in general, the dissociation constant of the complex between target and ligand, obtained from inhibition or displacement) on Mu-type opioid receptor is 2 nM; in assay [1], over 10 nM; in [2], 2.6 nM; in assay [3], 16 nM; in assay [4], 0.4 nM; in assay [5], 3.6 nM. For the same compound, the Ki in assay [6] stood at 3.1 nM; in assay [7], 4.1 nM; in assay [10], 1.05 nM. Moreover, the figures for the IC50 in assay [8] and in [9] were 220 nM and 1000 nM, respectively.
Turning to `FC(F)(F)c1ccc2c(c1)[C@@H]1CNC[C@H]2C1`, the values for the IC50 in assay [11] and in assay [12] were 260 nM and 110 nM, respectively.
Consider `CN1C2CCCC1CC(Nc1ccccc1Br)C2` (centres undefined), for which the Ki in [13] came out at 477 nM; in [14], 222 nM. The 50% inhibitory concentration (IC50) (commonly the concentration needed to halve the response being measured) in [15] was found to be 300 nM; in assay [16] it was 600 nM; against Histamine H1 receptor it was 201 nM; in assay [17], 325 nM; in [18] it was 418 nM.
Regarding `C[C@@H]1NC(=O)[C@H](Cc2ccccc2)NC(=O)[C@@H]2CSSC[C@H](NC(=O)CN)C(=O)N[C@@H](CSSC[C@@H](C(N)=O)NC(=O)[C@H](CC(=O)O)NC(=O)[C@@H]3CCCN3C(=O)[C@H](CC(N)=O)NC(=O)[C@H]([C@@H](C)O)NC1=O)C(=O)N[C@@H](CO)C(=O)N[C@@H](Cc1ccc(O)cc1)C(=O)N1CCC[C@H]1C(=O)N1CCC[C@H]1C(=O)N2`, the IC50 was 770 nM in [19], over 100000 nM in [20], over 100000 nM in assay [21] and over 100000 nM in assay [22].
As to `CC[C@H](C)[C@H](NC(=O)[C@H](Cc1cnc[nH]1)NC(=O)[C@@H]1CCCN1C(=O)[C@H](CC(N)=O)NC(=O)[C@H](CC(N)=O)NC(=O)[C@@H](NC(=O)[C@H](CC(N)=O)NC(=O)[C@H](CS)NC(=O)[C@H](C)NC(=O)[C@@H]1CCCN1C(=O)[C@H](Cc1cnc[nH]1)NC(=O)[C@H](CO)NC(=O)[C@H](CS)NC(=O)[C@H](CS)NC(=O)CN)C(C)C)C(=O)N[C@@H](CS)C(=O)O` (H-GCCSHPACNVNNPHIC-OH), the concentration for half-maximal inhibition (IC50) in assay [23] was 97 nM; in assay [24], 33 nM; in [25], over 100000 nM; in [26], 103 nM.
Turning to `CC(C)C[C@@H]1NC(=O)[C@H](C(C)C)NC(=O)[C@H](C)NC(=O)[C@@H]2CSSC[C@H](NC(=O)CN)C(=O)N[C@@H](CSSC[C@@H](C(=O)O)NC(=O)[C@H](Cc3ccc(O)cc3)NC1=O)C(=O)N[C@@H](CO)C(=O)N[C@@H]([C@@H](C)O)C(=O)N1CCC[C@H]1C(=O)N1CCC[C@H]1C(=O)N2` (H-GCCSTPPCAVLYC-OH; disulfide 2-8, 3-13), the IC50 in assay [27] came to 27.7 nM.
